Where “and” joins values, the source holds several entries; their conditions need not be identical. Equal values may be shown once.
Assays:
[1] = target: T1, PDE3 purified from human platelets (Homo sapiens, UniProt Q14432); test: Phosphodiesterase activity, PDE3; assay type: biochemical; details: 10 _M compound, n = 3
T1 construct: PDE3 and PDE5 purified from human platelets; from tissue; host or cells: human platelets
Method: PDE3 and PDE5 purified from human platelets and PDE4 purified from human U-937 pronocytic cells were used. Test compound (10 _M) or vehicle was incubated with 0.2 _g of enzyme and 1 _M cAMP containing 0.01 _M [^3H]cAMP in Tris buffer, pH 7.5, for 20 min at 25_. The reaction was terminated by boiling for 2 min, and the resulting cAMP was converted to adenosine by the addition of 10 mg/ml snake venom nucleotidase, which is followed by a further incubation at 37_for 10 min. Unhydrolyzed cAMP was bound to AG1-X2 resin, and the remaining [^3H]adenosine in the aqueous phase was quantitated by scintillation counting.

[2] = tested on: guinea pig tracheal smooth muscle cells; test: Measurement of cAMP in TSMCs; assay type: cell-based
Method: Cell Culture of Tracheal Smooth Muscle: Guinea pigs (350-450 g) were injected i.p. with a lethal dose of pentobarbital. The tracheas were excised and cut longitudinally through the cartilage. Using a dissecting microscope, TSM strips were dissected from the surrounding parentchyma. The epithelium was removed from the luminal surface, and bands of TSM were gently separated from the underlying connective tissue. Then TSM strips were chopped into small sections (1 mm^3) and incubated in Hanks' balanced salt solution (138 mM NaCl, 4 mM NaHCO3, 5 mM KCl, 0.3 mM KH2PO4, 0.3 mM Na2HPO4, and 1.0 mM glucose) with 0.05% elastase type IV and 0.2% collagenase type IV (Invitrogen, Carlsbad, Calif.) for 30 min at 37_ with gentle shaking. The solution of dissociated smooth muscle cells was centrifuged (6 min at 500 g), and the pellet was resuspended in 1:1 Dulbecco's modified Eagle's medium/Ham's F-12 medium supplemented with 10% fetal bovine serum, 0.244% NaHCO3, and 1% penicillin/streptomycin. Cells were cultured in 25-cm^2 flasks at 37_ in humidified air containing 5% CO2. Confluent cells were detached with 0.25% trypsin-0.02% EDTA at 37_and then subcultured to establish secondary cultures. Cultures were maintained for no more than four passages. They were identified as smooth muscle cells by the typical hill-and-valley appearance, and cellular homogeneity was further confirmed by the presence of smooth muscle specific _-myosin and _-actin immunoreactivity. Indirect immunofluorescence staining for a variety of antigens was carried out by first plating the cells on chamber slides, fixing the cells in 3.7% formaldehyde-phosphate-buffered saline for 10 min, and permeabilizing the cells with phosphate-buffered saline and 0.1% Triton X-100. Cells were then stained with either a mouse monoclonal antibody directed against the amino-terminal 10 amino acids of _-smooth muscle actin or _-myosin (Roche Diagnostics, Indianapolis, Ind.). All cells were stained with fluorescein-labeled goat anti-mouse IgG antibody (Roche Diagnostics).
Measurement of cAMP and cGMP: Intracellular concentrations of cAMP and cGMP in TSMCs were measured as in our previous reports (Wu B N, Lin R J, Lin C Y, Shen K P, Chiang L C, and Chen I J (2001) A xanthine-based KMUP-1 with cyclic GMP enhancing and K^+ channels opening activities in rat aortic smooth muscle. Br J Pharmacol 134:265-274; Lin R J, Wu B N, Lo Y C, Shen K P, Lin Y T, Huang C H, and Chen I J (2002) KMUP-1 relaxes rabbit corpus cavernosum smooth muscle in vitro and in vivo: involvement of cyclic GMP and K(+) channels, Br J Pharmacol 135:1159-1166). In brief, cells were finally grown in 24-well plates (10^5 cells/well). At confluence, monolayer cells were washed with phosphate-buffered saline and then incubated with KMUP-3 (0.01-100 _M) for 20 min at 37_ in medium. […] The reaction was terminated by replacement of medium with 1 ml of ice-cold 1 N hydrochloric acid. Cells suspensions were sonicated and then centrifuged at 2500 g for 15 min at 4_. Then, the supernatants were lyophilized and the cAMP and cGMP of each sample were determined using commercially available radioimmunoassay kits (GE Healthcare, Little Chalfont, Buckinghamshire, UK).

T1 sequence (Q14432 whole entry): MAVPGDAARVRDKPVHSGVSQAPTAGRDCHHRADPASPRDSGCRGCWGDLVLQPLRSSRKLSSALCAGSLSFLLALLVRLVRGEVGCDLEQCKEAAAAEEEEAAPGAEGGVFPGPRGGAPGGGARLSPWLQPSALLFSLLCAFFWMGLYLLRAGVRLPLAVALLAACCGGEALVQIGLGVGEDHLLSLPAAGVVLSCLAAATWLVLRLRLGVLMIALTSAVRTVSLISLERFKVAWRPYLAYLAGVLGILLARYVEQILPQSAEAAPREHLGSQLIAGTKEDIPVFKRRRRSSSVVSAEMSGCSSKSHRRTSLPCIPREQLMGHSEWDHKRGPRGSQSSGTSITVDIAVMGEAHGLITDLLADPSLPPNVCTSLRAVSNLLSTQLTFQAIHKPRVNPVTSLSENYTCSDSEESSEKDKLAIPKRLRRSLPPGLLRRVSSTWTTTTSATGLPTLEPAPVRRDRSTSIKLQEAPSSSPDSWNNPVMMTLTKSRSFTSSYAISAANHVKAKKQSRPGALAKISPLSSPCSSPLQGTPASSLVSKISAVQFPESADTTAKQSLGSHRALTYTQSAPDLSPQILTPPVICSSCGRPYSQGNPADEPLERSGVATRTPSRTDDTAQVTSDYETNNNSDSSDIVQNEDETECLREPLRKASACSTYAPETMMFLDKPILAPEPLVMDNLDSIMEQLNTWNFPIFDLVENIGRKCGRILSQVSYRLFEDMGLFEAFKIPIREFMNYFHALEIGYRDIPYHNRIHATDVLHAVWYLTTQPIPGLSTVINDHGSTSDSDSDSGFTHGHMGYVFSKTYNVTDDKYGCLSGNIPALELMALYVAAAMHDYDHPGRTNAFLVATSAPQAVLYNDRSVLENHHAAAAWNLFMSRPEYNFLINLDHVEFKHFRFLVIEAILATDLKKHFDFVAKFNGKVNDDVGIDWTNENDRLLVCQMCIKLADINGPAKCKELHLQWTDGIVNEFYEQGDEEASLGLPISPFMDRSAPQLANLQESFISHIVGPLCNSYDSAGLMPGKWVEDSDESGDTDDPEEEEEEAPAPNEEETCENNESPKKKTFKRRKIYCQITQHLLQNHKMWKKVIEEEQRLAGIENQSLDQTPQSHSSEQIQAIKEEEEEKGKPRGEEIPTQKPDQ

SMILES: Cn1c(=O)c2c(ncn2CCN2CCN(c3ccc([N+](=O)[O-])cc3)CC2)n(C)c1=O [KMUP-3]
- PDE3 inhibition [1]: 55 ± 2.5 %
- cAMP level ([2]; 0.01 _M, 20 min, basal 62.6±6.4): 80.2±2.5 pmol/mg protein
- cAMP level ([2]; 0.1 _M, 20 min, basal 62.6±6.4): 91.3±3.4 pmol/mg protein
- cAMP level ([2]; 1 _M, 20 min, basal 62.6±6.4): 97.9±2.5 pmol/mg protein
- cAMP level ([2]; 10 _M, 20 min, basal 62.6±6.4): 110.7±4.5 pmol/mg protein
- cAMP level in presence of SQ 22536 ([2]; 100 _M compound plus SQ 22536 (100 _M) pretreatment): 74.51 ± 3.18 pmol/mg protein
- cAMP accumulation versus vehicle (FIG. 6) ([2]; 100 _M, 20 min): significant elevations
- cAMP level ([2]; 100 _M, 20 min, basal/vehicle 62.6±6.4): 127.5±4.8 pmol/mg protein and 128.72 ± 4.57 pmol/mg protein
